The values that follow come from patent publication US8318146B1, “Ascarosides as nematode sex pheromones” (The United States of America, as represented by the …, priority 2008, dated 2012).

For data set [1], the system named is adult male Caenorhabditis elegans. Nature of the data set: Caenorhabditis mating assay (male attraction, time spent in scoring region). Type of data set: in vivo. The conditions noted are these: for activity in the attraction assay: 0 to 10000 fmol range; for male attraction activity, each ascaroside tested individually at physiological concentrations: 0 to 10 fmol for ascr#3, 0 to 100 fmol for ascr#2; for male attraction when assayed individually: 10 fmol ascr#3, 100 fmol ascr#2; for shape of dose-response curve: 0.1 fmol to 10,000 fmol (FIG. 4); for male attraction activity at higher concentrations: above the physiological range. The method, then: Wild-type C. elegans var. N2 Bristol and males from the CB1490 him-5(e1490) mutant were utilized in bioassays. The him-5(e1490) mutant segregates XO male progeny by X chromosome nondisjunction during meiosis. All strains were maintained at 20° C. unless detailed otherwise.
Standard nematode growth medium plates (5 cm diameter) were used for assaying biological activity of the nematode conditioned water. The assay plates comprised of a thin lawn of an overnight grown E. coli OP50 culture with an approximate 0.25 cm gap between the bacterial lawn and the edge of the plate to prevent the nematodes from escaping. Plates were stored at room temperature (20° C.) for two days before being used in trials. Two spots (5 mm in diameter) were spotted 1.6 cm apart from each other on a template and stuck to the bottom of the assay plate. 0.8 μl of the control and the nematode metabolite were placed in the two circles and allowed to dry for approximately 30 seconds. To remove any bias, control and conditioned water spots were interchanged after every trial. Males and hermaphrodites were harvested daily at the fourth larval stage (L4) and stored at 20° C. overnight with 50-60 nematodes of the same sex per plate to be used as young adults the following day. Five nematodes were placed at approximately 1.0 cm away on each side (10 nematodes total) from the spots and allowed to acclimatize for 5 minutes. Trials were videotaped at 30 frames per second for 15 minutes using the Fire-i Unibrain software. For each sample, a minimum of 4-5 trials were conducted each day and each stage was tested on at least three different days.
Each time a nematode entered and left the scoring region it was scored as a nematode event. The time the nematode entered the scoring region and left the scoring region was recorded. Once inside the scoring region, the average time spent by each nematode was noted and the average time spent by the different nematode in the scoring region during the 15 minute interval (control and the conditioned water) were calculated.

A short description of data set [2]: Stability of ascr#2 and ascr#3 in agar plates (LC-MS). The data set is classed as physicochemical. The settings on record: agar plates with 200 nM stored at room temperature for three months; extract in 1 ml methanol. As to the method: Agar plates (total volume: 20 ml) prepared from Nobel agar and S-media containing ascr#2 and ascr#3 at a concentration of 200 nM were stored at room temperature for three months and subsequently lyophilized. The residue was powdered using a mortar and extracted with ethanol. The extract was evaporated to dryness, redissolved in 1 ml of methanol, and analyzed via LC-MS, using an Agilent 1100 HPLC system equipped with a 10×250 mm Supelco 5μ ODS preparative column eluted at a flow rate of 3.4 ml/min, and a Micromass Quattro II triple-quadrupole mass spectrometer operated in positive-electrospray ionization mode. A solvent gradient was used starting with a solvent composition of 5% methanol and 95% water, which was maintained for three minutes and then progressed linearly to 100% methanol by 40 minutes, resulting in retention times of 21.3 min (ascr#3) and 25.6 min (ascr#2).

The test system of a further data set is Male C. elegans. Nature of the data set: Reversal frequency of males on ascaroside agar plates (automated nematode tracker). The data set is classed as in vivo, Caenorhabditis elegans. The method, then:
Given the nature of the attraction assay, the exact concentration of the compounds tested in the scoring region is not well defined. […] A system used to track the sinusoidal movement of nematodes is disclosed in Cronin et al., 2005. BMC Genet. 6:5 and incorporated herein by reference.
For the tracker assays, standard nematode growth medium was prepared and added the different ascarosides to the required concentrations into the agar. Plates containing the ascarosides were then allowed to cool and stored at 20° C. overnight. Control plates were treated the same way except that instead of the ascaroside, an equivalent quantity of 100% ethanol was added to the agar. Assay plates were seeded with a thin lawn of an overnight grown E. coli OP50 culture and allowed to dry overnight. 10-15 L4 males were picked 14-16 hours before the experiment on E. coli OP50 seeded plates. For each assay, individual males were picked and placed on assay plates. After 5 minutes, males were assayed for 15 min using the automated tracker to get the different locomotion parameters. For each concentration of ascaroside, an equal number of males were tested on control plates. After the recordings, nematodes were processed using automated tracker software and the results were analyzed using in-house matlab scripts.

For the molecule `C[C@H](CCCCC(=O)O)O[C@@H]1O[C@@H](C)[C@H](O)C[C@H]1O` [ASCR #1, 6R-(Tetrahydro-3′R,5′R-dihydroxy-6′S-methyl-2H-pyran-2′R-yloxy)-heptanoic acid], in data set [1] (single ascaroside), the “activity in the attraction assay” value is “not active”.

For the molecule `CC(=O)CC[C@@H](C)O[C@@H]1O[C@@H](C)[C@H](O)C[C@H]1O` [ASCR #2, 5R-(Tetrahydro-3′R,5′R-dihydroxy-6′S-methyl-2H-pyran-2′R-yloxy)-2-hexanone], in data set [1] (FIG. 4), the “male attraction activity, each ascaroside tested individually at physiological concentrations” value is on record as “not active”. The “male attraction when assayed individually” value in data set [1] is listed as “did not elicit significant male attraction”. Moreover, in data set [1] (single ascaroside), the “shape of dose-response curve” value is “strongly biphasic activity profile” and the “male attraction activity at higher concentrations” value was “active”. In data set [1] (single ascaroside, FIG. 4), the “time spent in spotted region relative to control region (maximum)” value is reported as ~2.8 fold. Also, the “concentration in the agar extract” value in data set [2] came out at 3.5 µM. Besides, the “increase of reversal frequency” value with Male C. elegans (ascaroside in agar, FIG. 6B) is listed as “only weak increases”.

Regarding `C[C@H](CCCC/C=C/C(=O)O)O[C@@H]1O[C@@H](C)[C@H](O)C[C@H]1O` [ASCR #3, 8R-(Tetrahydro-3′R,5′R-dihydroxy-6′S-methyl-2H-pyran-2′R-yloxy)-2E-nonenoic acid], in data set [1] (FIG. 4), the “male attraction activity, each ascaroside tested individually at physiological concentrations” value is on record as “not active”. In addition, in data set [1], the “male attraction when assayed individually” value is “did not elicit significant male attraction”. Besides, in data set [1] (single ascaroside), the “shape of dose-response curve” value is on record as “strongly biphasic activity profile” and the “male attraction activity at higher concentrations” value is “active”. In data set [1] (single ascaroside, FIG. 4), the “rank of male attraction response among single ascarosides” value is recorded as “strongest response” and the “time spent in spotted region relative to control region (maximum)” value is listed as “approximately 6.6 fold”. For the same molecule, the “concentration in the agar extract” value in data set [2] is 3.2 µM. Besides, the “lowest concentration that increases reversal frequency” value with Male C. elegans (ascaroside in agar, FIG. 6A) came out at 1 pM. For the same molecule, in the data set on Male C. elegans (comparison with dauer induction), the “male attractant concentration lower than required for dauer induction” value is “more than 10.000 fold”.

As for `CC(=O)CC[C@@H](C)O[C@@H]1O[C@@H](C)[C@H](O)C[C@H]1O[C@@H]1O[C@H](CO)[C@@H](O)[C@H](O)[C@H]1O` [ASCR #4, 5R-(3′-O-[β-D-glucosyl]-tetrahydro-3′R,5′R-dihydroxy-6′S-methyl-2H-pyran-2′R-yloxy)-2-hexanone], the “activity in the attraction assay” value in data set [1] (single ascaroside) is on record as “not active”.
